Reference: ChEMBL document CHEMBL3352140, “Targeting the PPM1D phenotype; 2,4-bisarylthiazoles cause highly selective apoptosis in PPM1D amplified cell-lines” (Bioorg Med Chem Lett, 2014)
Active and inactive are the calls of the source. The calls are words filed in the database; no cut-off is given here.

Experiments:
[1] = biological target: T1, Protein phosphatase 1D (Homo sapiens, UniProt O15297); experiment: Inhibition of PPM1D (unknown origin) phosphatase activity using peptide substrate TDDEMT*GY*VAT by malachite green/molybdate based assay
T1 sequence (O15297 whole entry): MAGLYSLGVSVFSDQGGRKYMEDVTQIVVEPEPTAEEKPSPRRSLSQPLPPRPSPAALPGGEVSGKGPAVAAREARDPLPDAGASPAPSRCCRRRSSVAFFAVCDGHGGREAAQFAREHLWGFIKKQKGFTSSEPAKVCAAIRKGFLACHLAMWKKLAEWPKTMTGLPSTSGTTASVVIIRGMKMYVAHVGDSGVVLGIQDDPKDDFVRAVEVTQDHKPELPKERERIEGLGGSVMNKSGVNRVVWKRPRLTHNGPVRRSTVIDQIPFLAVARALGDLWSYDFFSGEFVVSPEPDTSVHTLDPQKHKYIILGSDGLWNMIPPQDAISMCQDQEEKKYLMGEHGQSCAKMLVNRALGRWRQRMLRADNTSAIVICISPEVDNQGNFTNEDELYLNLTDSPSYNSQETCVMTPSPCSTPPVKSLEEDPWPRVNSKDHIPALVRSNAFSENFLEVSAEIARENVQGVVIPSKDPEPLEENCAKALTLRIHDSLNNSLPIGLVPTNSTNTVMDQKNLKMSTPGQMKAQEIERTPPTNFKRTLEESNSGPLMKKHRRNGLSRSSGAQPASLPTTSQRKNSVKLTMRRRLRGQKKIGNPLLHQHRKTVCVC

[2] = Anticancer activity against human TOV21G cells after 3 days incubation by SRB proliferation assay; type: functional; conditions: 72 h
[3] = Anticancer activity against human SMOV2 cells after 3 days incubation by SRB proliferation assay; type: functional; conditions: SMOV2, 72 h
[4] = Anticancer activity against human TOV21G cells after 5 days incubation by SRB proliferation assay; type: functional; conditions: 120 h
[5] = tested on: TOV21G; experiment: Induction of apoptosis in […] human TOV21G cells assessed as increase in PARP cleavage at 1.25 to 5 uM after 24 hrs by Western blot analysis; type: functional, cell-based
[6] = Anticancer activity against human SMOV2 cells after 5 days incubation by SRB proliferation assay; type: functional; conditions: SMOV2, 120 h
[7] = biological target: T2, Protein phosphatase 1D (Homo sapiens) (UniProt O15297); conditions: TOV21G, 1.25 to 5 uM
T2 sequence (whole entry): T1 sequence (O15297 whole entry)
Description: Inhibition of PPM1D in non-amplified human TOV21G cells assessed as increase in P-S15-p53 level at 1.25 to 5 uM after 24 hrs by Western blot analysis

[8] = biological target: T2, Protein phosphatase 1D (Homo sapiens); conditions: SMOV2, 1.25 to 5 uM
Description: Inhibition of PPM1D in human SMOV2 cells assessed as increase in P-S15-p53 level at 1.25 to 5 uM after 24 hrs by Western blot analysis

[9] = tested on: SMOV2; experiment: Induction of apoptosis in human SMOV2 cells assessed as increase in PARP cleavage at 1.25 to 5 uM after 24 hrs by Western blot analysis; type: functional, cell-based
[10] = Anticancer activity against PPM1D non-amplified human SMOV2 cells after 5 days incubation by SRB proliferation assay; type: functional; conditions: SMOV2, 120 h
[11] = tested on: MCF7; experiment: Anticancer activity against PPM1D amplified human MCF7 cells after 5 days incubation by SRB proliferation assay; type: functional; conditions: MCF7, 120 h
[12] = tested on: HeLa; experiment: Anticancer activity against PPM1D non-amplified human HeLa cells after 5 days incubation by SRB proliferation assay; type: functional; conditions: 120 h
[13] = Anticancer activity against […] human TOV21G cells after 5 days incubation by SRB proliferation assay; type: functional; conditions: 120 h
[14] = Anticancer activity against PPM1D amplified human KPL1 cells after 5 days incubation by SRB proliferation assay; type: functional; conditions: KPL-1, 120 h
[15] = Anticancer activity against PPM1D non-amplified human CAMA1 cells after 5 days incubation by SRB proliferation assay; type: functional; conditions: CAMA-1, 120 h

**Q.** For `CN(C)Cc1cc(F)ccc1-c1nc(-c2ccc3[nH]c(=O)oc3c2)cs1`, which IC50 [1] is on record?
**A.** Its IC50 is < 20 µM.

**Q.** What about the GI50 [2] of the same compound?
**A.** The GI50 was > 50 µM.

**Q.** What about the GI50 [3] of the same compound?
**A.** Its GI50 is 0.01 µM.

**Q.** Which results are given for `Cc1cc(F)ccc1-c1nc(-c2ccc3c(c2)[nH]c(=O)n3CCN(C)C)cs1`?
**A.** IC50 [1]: < 20 µM; GI50 [2]: > 50 µM; GI50 [3]: > 50 µM

**Q.** What does the source list for `CCc1cc(F)ccc1-c1nc(-c2ccc3[nH]c(=O)oc3c2)cs1`?
**A.** IC50 [1]: < 20 µM; GI50 [2]: > 50 µM; GI50 [3]: 0.013 µM

**Q.** With `O=c1[nH]c2ccc(-c3csc(-c4ccc(F)cc4)n3)cc2o1` as the compound, how does the GI50 [4] read?
**A.** The GI50 was > 50 µM.

**Q.** What about the Activity [5] of the same compound?
**A.** The Activity was “inactive”.

**Q.** What about the GI50 [6] of the same compound?
**A.** Its GI50 is 0.01 µM.

**Q.** What about the inhibition [7] of the same compound?
**A.** The inhibition was “inactive”.

**Q.** And the IC50 [1]?
**A.** The IC50 was 23 µM.

**Q.** And the inhibition [8]?
**A.** The inhibition was “Active”.

**Q.** And the Activity [9]?
**A.** Its Activity is “Active”.

**Q.** What about the GI50 [2] of the same compound?
**A.** The GI50 was > 50 µM.

**Q.** And the GI50 [3]?
**A.** Its GI50 is 0.13 µM.

**Q.** For `Cc1cc(F)ccc1-c1nc(-c2ccc3[nH]c(=O)n(CCN(C)C)c3c2)cs1`, which IC50 [1] is on record?
**A.** Its IC50 is < 20 µM.

**Q.** And the GI50 [2]?
**A.** Its GI50 is > 50 µM.

**Q.** What about the GI50 [3] of the same compound?
**A.** Its GI50 is 0.003 µM.

**Q.** Which GI50 [4] does the source give for `O=c1[nH]c2ccc(-c3csc(-c4ccccc4)n3)cc2o1` here?
**A.** Its GI50 is > 50 µM.

**Q.** And the GI50 [6]?
**A.** Its GI50 is 2 µM.

**Q.** And the IC50 [1]?
**A.** The IC50 was < 20 µM.

**Q.** Which IC50 [1] does the source give for `O=c1[nH]c2ccc(-c3csc(-c4ccc(F)c(F)c4)n3)cc2o1` here?
**A.** Its IC50 is < 20 µM.

**Q.** What about the GI50 [2] of the same compound?
**A.** Its GI50 is > 50 µM.

**Q.** And the GI50 [3]?
**A.** Its GI50 is 0.29 µM.

**Q.** For `Cc1cc(F)ccc1-c1nc(-c2ccc3[nH]c(=O)oc3c2)cs1`, which IC50 [1] is on record?
**A.** The IC50 was > 100 µM.

**Q.** And the GI50 [2]?
**A.** The GI50 was > 50 µM.

**Q.** And the GI50 [3]?
**A.** Its GI50 is 0.002 µM.

**Q.** For `Cc1cc(F)ccc1-c1nc(-c2ccc3c(c2)CC(=O)N3)cs1`, which IC50 [1] is on record?
**A.** Its IC50 is < 20 µM.

**Q.** And the GI50 [2]?
**A.** The GI50 was > 50 µM.

**Q.** And the GI50 [3]?
**A.** Its GI50 is 0.002 µM.

**Q.** With `O=c1[nH]c2ccc(-c3csc(-c4ccc(F)cc4CO)n3)cc2o1` as the compound, how does the IC50 [1] read?
**A.** The IC50 was < 20 µM.

**Q.** What about the GI50 [2] of the same compound?
**A.** The GI50 was > 50 µM.

**Q.** What about the GI50 [3] of the same compound?
**A.** The GI50 was 0.023 µM.

**Q.** What does the source list for `Cc1ccc(-c2nc(-c3ccc4[nH]c(=O)oc4c3)cs2)cc1`?
**A.** GI50 [4]: > 50 µM; GI50 [6]: 24 µM; IC50 [1]: < 20 µM

**Q.** For `O=c1[nH]c2ccc(-c3csc(-c4ccc(F)cc4CN4CCOCC4)n3)cc2o1`, which IC50 [1] is on record?
**A.** Its IC50 is < 20 µM.

**Q.** And the GI50 [2]?
**A.** Its GI50 is > 50 µM.

**Q.** What about the GI50 [3] of the same compound?
**A.** Its GI50 is 0.52 µM.

**Q.** Which IC50 [1] does the source give for `CN(C)CCc1cc(F)ccc1-c1nc(-c2ccc3[nH]c(=O)oc3c2)cs1` here?
**A.** Its IC50 is < 20 µM.

**Q.** And the GI50 [2]?
**A.** Its GI50 is > 50 µM.

**Q.** And the GI50 [3]?
**A.** Its GI50 is 0.04 µM.

**Q.** For `NCCOCc1cc(F)ccc1-c1nc(-c2ccc3[nH]c(=O)oc3c2)cs1`, which IC50 [1] is on record?
**A.** The IC50 was < 20 µM.

**Q.** And the GI50 [2]?
**A.** The GI50 was > 50 µM.

**Q.** What about the GI50 [3] of the same compound?
**A.** The GI50 was 0.003 µM.

**Q.** What does the source list for `N#Cc1ccc(-c2nc(-c3ccc4[nH]c(=O)oc4c3)cs2)cc1`?
**A.** GI50 [4]: > 50 µM; GI50 [6]: 2 µM; IC50 [1]: < 20 µM

**Q.** Which results are given for `O=c1[nH]c2ccc(-c3csc(-c4ccncc4)n3)cc2o1`?
**A.** GI50 [4]: > 50 µM; GI50 [6]: 2.8 µM; IC50 [1]: < 20 µM

**Q.** What does the source list for `O=c1[nH]c2ccc(-c3csc(-c4ccc(F)cc4COCCN4CCCC4)n3)cc2o1`?
**A.** IC50 [1]: < 20 µM; GI50 [2]: > 50 µM; GI50 [3]: 0.013 µM

**Q.** What does the source list for `O=c1[nH]c2ccc(-c3csc(-c4ccc(F)c(C(F)(F)F)c4)n3)cc2o1`?
**A.** IC50 [1]: < 20 µM; GI50 [2]: > 50 µM; GI50 [3]: > 50 µM

**Q.** Which IC50 [1] does the source give for `COCCOCc1cc(F)ccc1-c1nc(-c2ccc3[nH]c(=O)oc3c2)cs1` here?
**A.** The IC50 was < 20 µM.

**Q.** And the GI50 [2]?
**A.** Its GI50 is > 50 µM.

**Q.** And the GI50 [3]?
**A.** The GI50 was 0.002 µM.

**Q.** Which IC50 [1] does the source give for `COc1cc(F)ccc1-c1nc(-c2ccc3[nH]c(=O)oc3c2)cs1` here?
**A.** Its IC50 is < 20 µM.

**Q.** And the GI50 [2]?
**A.** Its GI50 is > 50 µM.

**Q.** And the GI50 [3]?
**A.** The GI50 was 5.7 µM.

**Q.** Which results are given for `Cc1cc(F)ccc1-c1nc(-c2ccc3[nH]c(=O)[nH]c3c2)cs1`?
**A.** IC50 [1]: < 20 µM; GI50 [2]: > 50 µM; GI50 [3]: 0.001 µM

**Q.** Which results are given for `Cc1cc(-c2nc(-c3ccc4[nH]c(=O)oc4c3)cs2)ccc1F`?
**A.** IC50 [1]: < 20 µM; GI50 [2]: > 50 µM; GI50 [3]: 0.25 µM

**Q.** With `COCCOCc1cc(F)ccc1-c1nc(-c2ccc3[nH]c(=O)[nH]c3c2)cs1` as the compound, how does the GI50 [10] read?
**A.** The GI50 was 20 µM.

**Q.** And the GI50 [11]?
**A.** Its GI50 is 0.005 µM.

**Q.** What about the IC50 [1] of the same compound?
**A.** The IC50 was < 20 µM.

**Q.** And the GI50 [12]?
**A.** Its GI50 is 3.9 µM.

**Q.** What about the GI50 [13] of the same compound?
**A.** The GI50 was 5.6 µM.

**Q.** What about the GI50 [2] of the same compound?
**A.** Its GI50 is > 50 µM.

**Q.** And the GI50 [3]?
**A.** The GI50 was 0.013 µM.

**Q.** What about the GI50 [14] of the same compound?
**A.** Its GI50 is 0.01 µM.

**Q.** What about the GI50 [15] of the same compound?
**A.** The GI50 was 15 µM.

**Q.** Which GI50 [4] does the source give for `O=c1[nH]c2ccc(-c3csc(-c4ccc(Cl)cc4)n3)cc2o1` here?
**A.** Its GI50 is > 50 µM.

**Q.** And the GI50 [6]?
**A.** Its GI50 is 0.63 µM.

**Q.** What about the IC50 [1] of the same compound?
**A.** Its IC50 is < 20 µM.

**Q.** For `O=c1[nH]c2ccc(-c3csc(-c4cccc(F)c4)n3)cc2o1`, which GI50 [4] is on record?
**A.** The GI50 was > 50 µM.

**Q.** What about the GI50 [6] of the same compound?
**A.** Its GI50 is 0.85 µM.

**Q.** What about the IC50 [1] of the same compound?
**A.** The IC50 was < 20 µM.

**Q.** Which IC50 [1] does the source give for `O=c1[nH]c2ccc(-c3csc(-c4ccc(F)c(O)c4)n3)cc2o1` here?
**A.** Its IC50 is < 20 µM.

**Q.** What about the GI50 [2] of the same compound?
**A.** Its GI50 is > 50 µM.

**Q.** What about the GI50 [3] of the same compound?
**A.** The GI50 was 1.6 µM.
